Data: patent publication US20250304990A1, “HERBICIDE RESISTANCE” (SYNGENTA CROP PROTECTION AG, priority 2021, published 2025)

Tests used:
Experiment in all cases: Dose response test, growth in 96-well plates
Format in all cases: cell-based, Chlorella fusca
Cf WT = settings: Cf WT; 2-fold dilutions from 100 ppm
Protocol: (§1) Dose response tests with B5U were set-up in 96-well, flat bottomed plates. 200 μl medium was used in each well. 2 μl of 6 day old culture was added to each well, then 2 μl of DMSO or dilution of test compound were added to respective wells. 2-fold dilutions starting at 100 ppm were used per well. Plates were incubated at 25° C., 50 μmol/m^2/s, 16 hour photoperiod.
(§2) This was assessed by a visual inspection of growth in the 96-well plate. The inhibitor concentration at which no growth is observed is then defined as the LD.
(§3) Starting dose was 100 ppm and decreasing with 2-fold dilutions with C. fusca wt, the five HST mutants and the 10 compounds to which the wt is sensitive. Plates were incubated at 25° C., 50 μmol/m2/s, 16 hour photoperiod.

Cf-496-15 = Cf-496-15 (T277N); 2-fold dilutions from 100 ppm
Protocol: as §1, §2, §3

Cf-496-19 = Cf-496-19 (F275I); 2-fold dilutions from 100 ppm
Protocol: as §1, §2, §3

Cf-496-28 = Cf-496-28 (V276A); 2-fold dilutions from 100 ppm
Protocol: as §1, §2, §3

Cf-496-8 = Cf-496-8 (M278L_F279I); 2-fold dilutions from 100 ppm
Protocol: as §1, §2, §3

Cf-496-94 = Cf-496-94 (F275L); 2-fold dilutions from 100 ppm
Protocol: as §1, §2, §3

Cc1nn(C)c(=O)c(-c2c(F)ccc(Cl)c2CCc2ccc(F)cc2)c1OC(=O)C(C)C [B5p, [5-[3-chloro-6-fluoro-2-[2-(4-fluorophenyl)ethyl]phenyl]-1,3-dimethyl-6-oxo-pyridazin-4-yl]2-methylpropanoate]
dose response to HST inhibiting compounds (Cf WT): 25 ppm
dose response to HST inhibiting compounds (Cf-496-15): >100 ppm
dose response to HST inhibiting compounds (Cf-496-19): >100 ppm
dose response to HST inhibiting compounds (Cf-496-28): >100 ppm
dose response to HST inhibiting compounds (Cf-496-8): >100 ppm
dose response to HST inhibiting compounds (Cf-496-94): >100 ppm
